Laboratory results as given in patent US20220089602A1, “COMPOUNDS THAT INDUCE FERROPTIC CELL DEATH” (The Board of Trustees of the University of Illinois, priority 2019, published 2022).

Key:
[1] = test system: A549 cells; assay: Speed of cell death, AV/PI flow cytometry; type: cell-based; settings: each at 10 μM, A549 (K-RAS mutant)
Method: (§1) ES-2, HCT 116, Mia PaCa-2, A549, and 4T1 cells (1×10^5 cells/mL) were plated overnight in 12 well plates, prior to addition of compounds. For protection studies, samples were pre-treated with each protecting agent such as 25 μM Q-VD-OPh, 250 μM trolox, 2 μM ferrostatin-1, 5 mM NAC-1 (neutralized pH), or 100 μM deferoxamine (DFO) for two hours or 1 hr (NAC-1) before compound addition. Cells were incubated for the appropriate times and harvested for flow cytometry analysis. Cell pellets were resuspended in binding buffer (10 mM HEPES, pH 7.4, 140 mM NaCl, 2.5 mM CaCl2) containing 2 μg/mL propidium iodide and 5 μL/mL Annexin V-FITC conjugate antibody and analyzed for cell viability after gating for forward and side scattering. Ten thousand events were collected per sample in BD LSR II Flow Cytometer (BD Bioscience) and FCS express V6, De Novo software was used to perform experimental analysis.

[2] = test system: ES-2 cells; assay: Speed of cell death, AV/PI flow cytometry; type: cell-based; settings: 10 μM, ES-2, AV/PI
Method: as §1

[3] = test system: HCT 116 cells; assay: Speed of cell death, AV/PI flow cytometry; type: cell-based
Method: as §1

[4] = test system: Mia PaCa-2 cells; assay: Speed of cell death, AV/PI flow cytometry; type: cell-based; settings: 10 μM, Mia PaCa-2, AV/PI
Method: as §1

[5] = molecular target: T1, GSTO1 (Homo sapiens, UniProt P78417); assay: Biotin-streptavidin pulldown with P29, competition by ferroptocide, LC/LC-MS/MS; type: binding; settings: DMSO/ferroptocide spectral count ratio of P29-labeled enriched proteins
T1 construct: endogenous in cells; host or cells: HCT 116 (and ES-2) cells
Method: (§2) ES-2 and HCT 116 (20×10^6 cells/flask) were plated in T175 flasks and treated with DMSO or 20 µM ferroptocide for 1 hr followed by treatment with 20 μM P29 for 1 hr. Cells were lysed via sonication (6500 g, 4 min) in DPBS and the soluble proteome was isolated after […] (45000 g, 45 min). Bradford assay was used to determine protein concentration. The soluble protein lysates in DPBS (pH 7.4) (500 μL, 2 mg/mL) were treated with biotin-azide (100 μM, 50× stock in DMSO), TCEP (1 mM, 50× fresh stock in water), TBTA ligand (100 μM, 17× stock in DMSO:t-butanol=1:4), and copper(II) sulfate (1 mM, 50× stock in water) followed by incubation at r.t. for 1 hr. Samples were centrifuged (6500 g, 4 min, 4° C.) and the supernatant was discarded. The pellets were resuspended in cold methanol by sonication (2×) and then were solubilized in DPBS containing 1.2% SDS via sonication and heating (90° C., 5 min). A final SDS concentration of 0.2% was achieved after addition of 5 mL of DPBS to the SDS-solubilized proteome samples. The solution was incubated overnight at 4° C. with 100 μL of streptavidin-agarose beads (ThermoFisher, washed 3× with DPBS to remove storage buffer). Samples were rotated at 22° C. for 2 hr before being washed by 5 mL 0.2% SDS/DPBS, 3×5 mL DPBS, and 3×5 mL water. The beads were pelleted by centrifugation (1400×g, 3 min) between washes.
(§3) The washed beads were suspended in 500 μL of 6 M urea/DPBS and 10 mM DTT (from 20× stock in water) and heated for 20 min on a 65° C. heat block. Upon addition of iodoacetamide (20 mM from 50× stock in water), samples were allowed to react at 37° C. for 30 min while shaking. Following reduction and alkylation, the beads were pelleted by centrifugation and resuspended in 200 μL of 2 M urea/DPBS, 1 mM CaCl2) (100× stock in water), and sequencing-grade trypsin (2 μg). The bead digestion occurred overnight at 37° C. while shaking. Next day, the beads were pelleted by centrifugation and washed with 2×50 μL water. The washes were combined with the supernatant from the trypsin digestion step, and after addition of formic acid (15 μL) to each sample, they were stored at −20° C. until mass spectrometry analysis.
(§4) LC/LC-MS/MS analysis was performed on an LTQ-Orbitrap Discovery mass spectrometer (ThermoFisher) coupled to an Agilent 1200 series HPLC. Peptide digests were pressure loaded onto a 250 m fused silica desalting column packed with 4 cm of Aqua C18 reverse phase resin (Phenomenex). The peptides were eluted onto a biphasic column (100 m fused silica with a 5, tip, packed with 10 cm C18 and 4 cm Partisphere strong cation exchange resin (SCX, Whatman) using a gradient 5-100% Buffer B in Buffer A (Buffer A: 95% water, 5% acetonitrile, 0.1% formic acid; Buffer B: 20% water, 80% acetonitrile, 0.1% formic acid). The peptides were then eluted from the SCX onto the C18 resin and into the mass spectrometer using 4 salt steps previously described (Nat. Protoc. 2, 1414-1425, (2007)). The flow rate through the column was set to ˜0.25 μL/min and the spray voltage was set to 2.75 kV. One full MS scan (FTMS) (400-1800 MW) was followed by 8 data dependent scans (ITMS) of the n^th most intense ions. The tandem MS data were searched using the SEQUEST algorithm using a concatenated target/decoy variant of the human UniProt database. A static modification of +57.02146 on cysteine was specified to account for alkylation by iodoacetamide. MS2 spectra matches were assembled into protein identifications and filtered using DTASelect2.0 to generate a list of protein hits with a peptide false-discovery rate of 5%. The mass spectrometry proteomics data have been deposited to the ProteomeXchange Consortium via the PRIDE [1] partner repository with the dataset identifier PXD012805.

[6] = molecular target: T2, KEAP1 (Homo sapiens, UniProt Q14145); assay: as above; type: binding; settings: DMSO/ferroptocide spectral count ratio of P29-labeled enriched proteins
T2 construct: endogenous in cells; host or cells: HCT 116 (and ES-2) cells
Method: as §2, §3, §4

[7] = molecular target: T3, PGLS (Homo sapiens, UniProt O95336); assay: as above; type: binding; settings: DMSO/ferroptocide spectral count ratio of P29-labeled enriched proteins
T3 construct: endogenous in cells; host or cells: HCT 116 (and ES-2) cells
Method: as §2, §3, §4

[8] = molecular target: T4, PTGES2 (Homo sapiens, UniProt Q9H7Z7); assay: as above; type: binding; settings: DMSO/ferroptocide spectral count ratio of P29-labeled enriched proteins
T4 construct: endogenous in cells; host or cells: HCT 116 (and ES-2) cells
Method: as §2, §3, §4

[9] = molecular target: T5, TXNRD1 (Homo sapiens, UniProt Q16881); assay: as above; type: binding; settings: DMSO/ferroptocide spectral count ratio of P29-labeled enriched proteins
T5 construct: HCT 116 cells were pre-treated with ferroptocide or DMSO, followed by treatment with P29; endogenous in cells; host or cells: HCT 116 (and ES-2) cells
Method: as §2, §3, §4

T5 sequence (Q16881 151-649 limits assumed): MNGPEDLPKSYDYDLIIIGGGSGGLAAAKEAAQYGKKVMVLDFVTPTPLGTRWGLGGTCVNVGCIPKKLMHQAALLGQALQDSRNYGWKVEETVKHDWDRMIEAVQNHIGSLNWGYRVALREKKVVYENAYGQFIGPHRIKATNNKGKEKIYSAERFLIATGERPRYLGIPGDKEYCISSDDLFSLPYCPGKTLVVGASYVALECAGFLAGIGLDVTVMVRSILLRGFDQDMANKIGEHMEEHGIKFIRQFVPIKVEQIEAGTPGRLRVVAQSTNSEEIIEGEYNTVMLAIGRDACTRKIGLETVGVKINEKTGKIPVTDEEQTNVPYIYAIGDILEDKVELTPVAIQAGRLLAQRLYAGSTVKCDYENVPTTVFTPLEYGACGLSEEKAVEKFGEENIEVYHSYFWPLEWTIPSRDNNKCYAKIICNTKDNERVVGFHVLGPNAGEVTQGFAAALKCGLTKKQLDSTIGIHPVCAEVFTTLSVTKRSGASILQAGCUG
T3 sequence (O95336 whole entry): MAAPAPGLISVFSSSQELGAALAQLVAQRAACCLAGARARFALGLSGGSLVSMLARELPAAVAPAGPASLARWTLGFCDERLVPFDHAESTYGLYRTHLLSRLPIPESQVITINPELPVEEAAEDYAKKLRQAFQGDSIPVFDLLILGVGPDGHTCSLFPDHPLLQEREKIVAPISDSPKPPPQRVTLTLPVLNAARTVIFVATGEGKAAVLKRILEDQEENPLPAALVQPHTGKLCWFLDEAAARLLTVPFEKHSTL
T1 sequence (P78417 whole entry): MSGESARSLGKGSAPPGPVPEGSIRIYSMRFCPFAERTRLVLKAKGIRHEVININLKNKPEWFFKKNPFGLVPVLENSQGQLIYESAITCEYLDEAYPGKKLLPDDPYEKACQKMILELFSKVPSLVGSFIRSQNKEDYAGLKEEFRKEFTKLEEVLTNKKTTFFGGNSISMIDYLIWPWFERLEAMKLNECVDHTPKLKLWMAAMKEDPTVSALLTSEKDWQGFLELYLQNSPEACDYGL
T2 sequence (Q14145 whole entry): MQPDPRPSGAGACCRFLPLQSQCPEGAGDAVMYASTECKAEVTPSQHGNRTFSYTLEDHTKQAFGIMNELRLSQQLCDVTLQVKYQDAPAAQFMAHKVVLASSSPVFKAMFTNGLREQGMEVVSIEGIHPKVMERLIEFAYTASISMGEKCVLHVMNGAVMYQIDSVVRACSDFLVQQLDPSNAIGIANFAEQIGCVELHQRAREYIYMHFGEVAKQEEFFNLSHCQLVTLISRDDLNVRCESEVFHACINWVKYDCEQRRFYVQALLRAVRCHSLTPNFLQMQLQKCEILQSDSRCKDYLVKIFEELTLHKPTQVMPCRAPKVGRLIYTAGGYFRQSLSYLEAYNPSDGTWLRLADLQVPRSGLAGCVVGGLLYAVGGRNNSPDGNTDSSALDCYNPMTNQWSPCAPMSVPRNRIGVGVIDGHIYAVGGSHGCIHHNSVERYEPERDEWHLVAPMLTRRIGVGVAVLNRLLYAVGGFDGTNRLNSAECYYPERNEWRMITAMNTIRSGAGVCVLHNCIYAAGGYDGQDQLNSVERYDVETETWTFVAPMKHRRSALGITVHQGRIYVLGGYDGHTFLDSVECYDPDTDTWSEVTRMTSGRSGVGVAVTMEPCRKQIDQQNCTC
T4 sequence (Q9H7Z7 whole entry): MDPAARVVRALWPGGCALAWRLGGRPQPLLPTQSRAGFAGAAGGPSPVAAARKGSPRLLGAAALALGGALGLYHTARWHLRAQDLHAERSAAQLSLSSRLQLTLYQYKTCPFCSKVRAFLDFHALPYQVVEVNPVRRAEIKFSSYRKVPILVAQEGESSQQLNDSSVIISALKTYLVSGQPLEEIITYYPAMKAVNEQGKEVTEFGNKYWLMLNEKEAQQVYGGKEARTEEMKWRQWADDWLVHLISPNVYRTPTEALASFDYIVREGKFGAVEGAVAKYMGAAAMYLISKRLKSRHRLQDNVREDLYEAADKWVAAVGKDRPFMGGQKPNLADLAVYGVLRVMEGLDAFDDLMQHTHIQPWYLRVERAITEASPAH

Compound: C[C@@H]1CC[C@@]23C[C@H](O)C(=O)[C@@]2(O)[C@]1(C)[C@H](OC(=O)CCl)C[C@@H](C1=CCn2c(=O)n(-c4ccccc4)c(=O)n2C1)[C@@H]3C [Compound P18, ferroptocide]
- cell death versus erastin and RSL3 [1]: inducing more quantitative cell death than the other tool compounds
- time to 50% cell death [2]: 1 h
- time to 50% cell death ([3]; 10 μM, HCT 116, AV/PI): 7 h
- cell death versus erastin and RSL3 ([3]; each at 10 μM, HCT 116 (K-RAS mutant)): inducing more quantitative cell death than the other tool compounds
- time to 50% cell death ([4]; listed as Ferroptocide): 2 h
- time to 50% cell death ([4]; listed as ferroptocide): 1.5 h
- Fold Change [5]: 3.6
- Fold Change [6]: 3.1
- Fold Change [7]: 2.7
- Fold Change [8]: 18
- Fold Change [9]: 4.9
